{
  "source": "patent US8946162B2",
  "about": "“Treatment of tumors” (priority 2008, dated 2015)",
  "key": {"human tumour cell line": {"system": "human tumour cell line", "assay": "Suppression of tumour cell growth (cell count in haemocytometer)", "type": "cell-based", "conditions": "up to day 17; for cell growth (cell count): culture medium RPMI 1640 10% FCS supplemented with the substance alone (100 nM peptide or 20 μg/ml sACE2), versus control medium", "method": "A human tumour cell line was sowed at a density of 2.5×10^4 cells/ml in 200 μl RPMI 1640 in 10% FCS in 96-well plates and incubated at 37° C. and 5% CO2. The influence of various active components of the RAS were evaluated using the following test systems. All the analyses were carried out as triple determinations (sACE2=soluble ACE2 without C-terminal membrane domain): • Condition A. Culture medium RPMI 1640 with 10% FCS as control • Condition B. Culture medium supplemented with 100 nM Ang II • Condition C. Culture medium supplemented with 100 nM Ang 1-7 • Condition D. Culture medium supplemented with 20 μg/ml sACE2 • Condition E. Culture medium supplemented with 20 μg/ml sACE2 and […]\nEvery day 100 μl of medium was removed and replaced by the same volume of fresh specific medium. The cell count was determined on days 2, 3, 6, 8, 10, 13, 15 and 17 by multiple counting in a haemocytometer. A separately prepared test plate was used for each determination."}, "Ang II [1]": {"system": "Ang II", "conditions": "reaction conditions identical; material expressed in insect cells; cited from earlier work"}, "[2]": {"assay": "Terminal half-life measured in various species", "type": "in vivo", "conditions": "including rhesus monkeys", "text": "ACE2 is metabolised slowly due to the large, highly branched and complex sugar moiety."}, "[3]": {"assay": "Aggregation of the ACE2 preparation in physiological buffer", "type": "physicochemical", "conditions": "concentrated protein solution in physiological buffer", "text": "The dimer-ACE2 preparation produced according to Example 1 is present as a stable, highly pure and concentrated protein solution in physiological buffer and can be stored and administered […].\nThe ACE2 preparation also has full enzyme activity."}, "Ang II [4]": {"system": "Ang II", "assay": "Determination of specific ACE2 activity (conversion of Ang II to Ang 1-7, RP-HPLC)", "type": "biochemical", "method": "Furthermore, both Ang II and Ang 1-7 peaks were recognised and integrated in the chromatograms. The peptide concentrations were determined using calibration curves. Enzymatic conversion and specific enzyme activity were also determined."}, "[5]": {"conditions": "250 ng/ml ACE2, 80 μM Ang II, pH 6.5, 18 minutes at 37° C."}},
  "data": [
    {"substance": "Asp-Arg-Val-Tyr-Ile-His-Pro-Phe (DRVYIHPF; printed: Asp-Arg-Val-Tyr-Ile-His-Pro-Phe) [Ang II, reference compound]", "values": [
      {"measurement": "cell growth (cell count)", "setting": "human tumour cell line", "result": "distinctly increased cell growth"}
    ]},
    {"substance": "ACE2 (Vickers et al.): ACE2 of Vickers et al., expressed in insect cells, same amino acid sequence, glycosylated to a considerably lesser extent", "values": [
      {"measurement": "catalytic ACE2 activity published by Vickers et al.", "setting": "Ang II [1]", "result": 3.5, "unit": "s⁻¹"}
    ]},
    {"substance": "ACE2 preparation produced according to Example 1: Soluble section of human ACE2 expressed in CHO, fully N-glycosylated, obtained as a dimer with two Zn2+", "values": [
      {"measurement": "terminal half-life", "setting": "[2]", "result": "at least 10.5 hours"},
      {"measurement": "aggregation to multimers", "setting": "[3]", "result": "does not exhibit any aggregation to multimers"},
      {"measurement": "cell growth (cell count)", "setting": "human tumour cell line", "result": "marginally increased growth"},
      {"measurement": "cell growth (cell count) in the presence of Ang II", "setting": "human tumour cell line; culture medium supplemented with 20 μg/ml sACE2 and […]", "result": "reduced cell growth"},
      {"measurement": "catalytic activity kkat based on Ang II conversion", "setting": "Ang II [4]; [5]", "result": "8.0 ± 0.3", "unit": "s⁻¹"},
      {"measurement": "catalytic activity kkat in relation to Ang 1-7 conversion", "setting": "Ang II [4]; [5]", "result": "8.8 ± 0.2", "unit": "s⁻¹"},
      {"measurement": "higher activity than the figures of Vickers et al.", "setting": "Ang II [4]; present preparation versus Vickers material", "result": 240, "unit": "%"}
    ]},
    {"substance": "Ang 1-7: Effector peptide of the RAS, antagonist of Ang II, formed from Ang II by ACE2 (DRVYIHP; Angiotensin 1-7; UniProt P01019 25-31, looked up) [reference compound]", "values": [
      {"measurement": "cell growth (cell count)", "setting": "human tumour cell line", "result": "reduced cell growth"}
    ]}
  ]
}
